The subject of one assay is E. faecium E0341. Put plainly: MIC assay. The conditions noted are these: E. faecium E0341, VanA. Type of assay: cell-based, Enterococcus faecium.
A further assay deals with E. faecalis E1246. Put plainly: MIC assay. Type of assay: cell-based, Enterococcus faecalis. An outline of the steps: (§1)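 Inoculum 10^6 CFU/mL in TSB/0.002% p80 (Enterococcus, VISA, VRSA pre-grown to 0.5 McFarland). 2-fold dilutions, 1:1 with inoculum. 37 °C × 24 h, 600 rpm, sealed breathable membrane. MIC median of ≥3.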
Assay [1] concerns Klebsiella pneumoniae JS265. Put plainly: MIC assay. The class given is cell-based. An outline of the steps:
as §1

The test system of assay [2] is Escherichia coli ATCC 35218. Put plainly: MIC assay. Type of assay: cell-based. An outline of the steps:
as §1

Assay [3] deals with Klebsiella pneumoniae ATCC 13883. Put plainly: MIC assay. Type of assay: cell-based. An outline of the steps: as §1
Another assay concerns Escherichia coli W3110. Put plainly: MIC assay. The class given is cell-based. An outline of the steps:
as §1

Another assay relates to S. pneumoniae 153. Put plainly: MIC assay. Type of assay: cell-based. An outline of the steps:
as §1

The subject of assay [4] is Escherichia coli ATCC 25922. Put plainly: MIC assay. The class given is cell-based. An outline of the steps:
as §1

The subject of assay [5] is Klebsiella pneumoniae ATCC 27736. Put plainly: MIC assay. The class given is cell-based. An outline of the steps: as §1
Another assay concerns E. faecium E2359. Put plainly: MIC assay. The class given is cell-based, Enterococcus faecium. To be noted: E. faecium E2359, VanB.
The subject of assay [6] is S. aureus HIP13419, NR-46413. Put plainly: microbe, parasite or virus in culture. The class given is cell-based, Staphylococcus aureus. An outline of the steps: as §1
In a further assay the test system is S. aureus USA300. Put plainly: microbe, parasite or virus in culture. The class given is cell-based, Staphylococcus aureus. An outline of the steps: as §1
The subject of assay [7] is S. aureus 880 (BR-VRSA), NR-49120. Put plainly: MIC assay. The class given is cell-based, Staphylococcus aureus. An outline of the steps: as §1
For the next assay, the system named is S. aureus ATCC29213. Put plainly: MIC assay. The class given is cell-based, Staphylococcus aureus. An outline of the steps:
as §1

The test system of assay [8] is S. aureus HIP12864, NR-46074. Put plainly: MIC assay. The class given is cell-based, Staphylococcus aureus. An outline of the steps: as §1
The subject of assay [9] is S. aureus NY-155, NR-46236. Put plainly: MIC assay. Type of assay: cell-based, Staphylococcus aureus. An outline of the steps:
as §1

For assay [10], the system named is S. aureus LIM-2, NR-25881. Put plainly: MIC assay. Type of assay: cell-based, Staphylococcus aureus. An outline of the steps: as §1
The mark [11] stands for this setting: E. faecalis E1246 VRE (VanA), Table 7.
Where [12] appears, read: E. faecalis E1246 VRE (vanA), Table 9.
The mark [13] stands for this setting: S. pneumoniae 153, TSB+0.002% p80+5% lysed horse blood.
The mark [14] stands for this setting: S. aureus HIP13419, NR-46413 VRSA.
[15] abbreviates: S. aureus HIP12864, NR-46074 VISA.
[16] abbreviates: S. aureus NY-155, NR-46236 MRSA.

Converted amounts (≈) assume the structure as drawn.

As to `CCCCCCCNC(N)=Nc1ccc(CN[C@@]2(C)C[C@H](O[C@H]3[C@H](Oc4c5cc6cc4Oc4ccc(cc4Cl)[C@@H](O)[C@@H](NC(=O)[C@@H](CC(C)C)NC)C(=O)N[C@@H](CC(N)=O)C(=O)N[C@H]6C(=O)N[C@H]4C(=O)N[C@H](C(=O)N[C@H](C(=O)O)c6cc(O)cc(O)c6-c6cc4ccc6O)[C@H](O)c4ccc(c(Cl)c4)O5)O[C@H](CO)[C@@H](O)[C@@H]3O)O[C@@H](C)[C@H]2O)cc1` [Compound 5], the MIC against E. faecium E0341 is 8 µg/mL (≈ 4.72 µM); against E. faecalis E1246 (setting [11]) it was 16 µg/mL (≈ 9.44 µM); against E. faecalis E1246 (setting [12]) it was 16 µg/mL (≈ 9.44 µM); in assay [1], above 128 µg/mL; in assay [2] it was above 128 µg/mL; in assay [3] it was above 128 µg/mL. The MIC was above 128 µg/mL in the assay on Escherichia coli W3110; at most 0.008 µg/mL with S. pneumoniae 153 (setting [13]); above 128 µg/mL in assay [4]; above 128 µg/mL in [5]; at most 0.008 µg/mL in the assay on E. faecium E2359; 1 µg/mL (≈ 0.59 µM) in [6] (setting [14]). For the same compound, the MIC in the assay with S. aureus USA300 (MRSA USA300, TSB + 0.002% p80) is 0.016 µg/mL; with S. aureus USA300 (S. aureus USA300 MRSA), 0.01562 µg/mL (≈ 0.00922 µM); in assay [7] (S. aureus 880, NR-49120 VRSA), 4 µg/mL (≈ 2.36 µM); in [7] (strain BR-VRSA), 4 µg/mL (≈ 2.36 µM); against S. aureus ATCC29213 (S. aureus ATCC29213 MSSA), at most 0.007812 µg/mL; in [8] (setting [15]) it was 0.063 µg/mL (≈ 0.0372 µM). Moreover, the MIC was at most 0.008 µg/mL in assay [9] (setting [16]) and 0.031 µg/mL (≈ 0.0183 µM) in assay [10] (S. aureus LIM-2, NR-25881 VISA).

Take `CCCCCCCCNC(N)=Nc1ccc(CN[C@@]2(C)C[C@H](O[C@H]3[C@H](Oc4c5cc6cc4Oc4ccc(cc4Cl)[C@@H](O)[C@@H](NC(=O)[C@@H](CC(C)C)NC)C(=O)N[C@@H](CC(N)=O)C(=O)N[C@H]6C(=O)N[C@H]4C(=O)N[C@H](C(=O)N[C@H](C(=O)O)c6cc(O)cc(O)c6-c6cc4ccc6O)[C@H](O)c4ccc(c(Cl)c4)O5)O[C@H](CO)[C@@H](O)[C@@H]3O)O[C@@H](C)[C@H]2O)cc1` [Compound 6]: the MIC in the assay with E. faecium E0341 was 4 µg/mL (≈ 2.34 µM); against E. faecalis E1246 (setting [11]), 8 µg/mL (≈ 4.68 µM); in the assay with E. faecalis E1246 (setting [12]), 8 µg/mL (≈ 4.68 µM); in assay [1] it was above 128 µg/mL; in assay [2] it was above 128 µg/mL; in assay [3] it was above 128 µg/mL. The MIC in the assay on Escherichia coli W3110 is above 128 µg/mL; in the assay on S. pneumoniae 153 (setting [13]), at most 0.008 µg/mL; in assay [4], above 128 µg/mL; in assay [5], above 128 µg/mL; against E. faecium E2359 it was at most 0.008 µg/mL; in assay [6] (setting [14]) it was 0.5 µg/mL (≈ 0.293 µM). The MIC in the assay on S. aureus USA300 (MRSA USA300, TSB + 0.002% p80) was at most 0.008 µg/mL; against S. aureus USA300 (S. aureus USA300 MRSA), at most 0.007812 µg/mL; in assay [7] (S. aureus 880, NR-49120 VRSA) it was 2 µg/mL (≈ 1.17 µM); against S. aureus ATCC29213 (S. aureus ATCC29213 MSSA), at most 0.007812 µg/mL; in assay [8] (setting [15]) it was at most 0.008 µg/mL; in [9] (setting [16]), at most 0.008 µg/mL. In assay [10] (S. aureus LIM-2, NR-25881 VISA), this compound had an MIC of at most 0.008 µg/mL.

As to `CCCCCCCCCNC(N)=Nc1ccc(CN[C@@]2(C)C[C@H](O[C@H]3[C@H](Oc4c5cc6cc4Oc4ccc(cc4Cl)[C@@H](O)[C@@H](NC(=O)[C@@H](CC(C)C)NC)C(=O)N[C@@H](CC(N)=O)C(=O)N[C@H]6C(=O)N[C@H]4C(=O)N[C@H](C(=O)N[C@H](C(=O)O)c6cc(O)cc(O)c6-c6cc4ccc6O)[C@H](O)c4ccc(c(Cl)c4)O5)O[C@H](CO)[C@@H](O)[C@@H]3O)O[C@@H](C)[C@H]2O)cc1` [Compound 7], the MIC against E. faecium E0341 was 1 µg/mL (≈ 0.58 µM); against E. faecalis E1246 (setting [11]) it was 2 µg/mL (≈ 1.16 µM); against E. faecalis E1246 (setting [12]), 2 µg/mL (≈ 1.16 µM); in assay [1], above 128 µg/mL; in assay [2] it was above 128 µg/mL; in assay [3], above 128 µg/mL. The MIC with Escherichia coli W3110 was above 128 µg/mL; in the assay on S. pneumoniae 153 (setting [13]), at most 0.008 µg/mL; in assay [4] it was above 128 µg/mL; in assay [5], above 128 µg/mL; in the assay with E. faecium E2359, at most 0.008 µg/mL; in [6] (setting [14]), 0.125 µg/mL (≈ 0.0726 µM). Also, the MIC is at most 0.008 µg/mL in the assay with S. aureus USA300 (MRSA USA300, TSB + 0.002% p80); at most 0.007812 µg/mL in the assay with S. aureus USA300 (S. aureus USA300 MRSA); 0.5 µg/mL (≈ 0.29 µM) in assay [7] (S. aureus 880, NR-49120 VRSA); 0.01562 µg/mL (≈ 0.00907 µM) against S. aureus ATCC29213 (S. aureus ATCC29213 MSSA); at most 0.008 µg/mL in assay [8] (setting [15]); at most 0.008 µg/mL in assay [9] (setting [16]). Also, the MIC in assay [10] (S. aureus LIM-2, NR-25881 VISA) is at most 0.008 µg/mL.

Regarding `CCCCCCN(CCCCCC)C(N)=Nc1ccc(CN[C@@]2(C)C[C@H](O[C@H]3[C@H](Oc4c5cc6cc4Oc4ccc(cc4Cl)[C@@H](O)[C@@H](NC(=O)[C@@H](CC(C)C)NC)C(=O)N[C@@H](CC(N)=O)C(=O)N[C@H]6C(=O)N[C@H]4C(=O)N[C@H](C(=O)N[C@H](C(=O)O)c6cc(O)cc(O)c6-c6cc4ccc6O)[C@H](O)c4ccc(c(Cl)c4)O5)O[C@H](CO)[C@@H](O)[C@@H]3O)O[C@@H](C)[C@H]2O)cc1` [Compound 12], the MIC against E. faecium E0341 was 2 µg/mL (≈ 1.13 µM); against E. faecalis E1246 (setting [11]) it was 8 µg/mL (≈ 4.53 µM); in the assay on E. faecalis E1246 (setting [12]) it was 8 µg/mL (≈ 4.53 µM); in [1] it was above 128 µg/mL; in [2], above 128 µg/mL; in assay [3] it was above 128 µg/mL. Also, the MIC in the assay with Escherichia coli W3110 is above 128 µg/mL; with S. pneumoniae 153 (setting [13]), at most 0.008 µg/mL; in [4], above 128 µg/mL; in [5], above 128 µg/mL; against E. faecium E2359 it was at most 0.008 µg/mL; in assay [6] (setting [14]), 0.25 µg/mL (≈ 0.142 µM). Moreover, the MIC is 0.063 µg/mL in the assay on S. aureus USA300 (MRSA USA300, TSB + 0.002% p80); 0.0625 µg/mL (≈ 0.0354 µM) in the assay on S. aureus USA300 (S. aureus USA300 MRSA); 1 µg/mL (≈ 0.567 µM) in assay [7] (S. aureus 880, NR-49120 VRSA); 1 µg/mL (≈ 0.567 µM) in assay [7] (strain BR-VRSA); at most 0.007812 µg/mL in the assay on S. aureus ATCC29213 (S. aureus ATCC29213 MSSA); 0.063 µg/mL (≈ 0.0357 µM) in assay [8] (setting [15]). The MIC in [9] (setting [16]) was at most 0.008 µg/mL; in assay [10] (S. aureus LIM-2, NR-25881 VISA), at most 0.008 µg/mL.

With `CN[C@H](CC(C)C)C(=O)N[C@H]1C(=O)N[C@@H](CC(N)=O)C(=O)N[C@H]2C(=O)N[C@H]3C(=O)N[C@H](C(=O)N[C@H](C(=O)O)c4cc(O)cc(O)c4-c4cc3ccc4O)[C@H](O[C@H]3C[C@](C)(N)[C@@H](O)[C@H](C)O3)c3ccc(c(Cl)c3)Oc3cc2cc(c3O[C@@H]2O[C@H](CO)[C@@H](O)[C@H](O)[C@H]2O[C@H]2C[C@](C)(NCc3ccc(-c4ccc(Cl)cc4)cc3)[C@@H](O)[C@H](C)O2)Oc2ccc(cc2Cl)[C@H]1O` [Oritavancin], the MIC against E. faecalis E1246 (setting [12]) is 1 µg/mL (≈ 0.558 µM); in the assay with E. faecalis E1246 (Enterococcus faecalis, VRE) it was 1 µg/mL (≈ 0.558 µM); in the assay with S. pneumoniae 153 (Streptococcus pneumoniae, 153), at most 0.008 µg/mL; in assay [6] (Staphylococcus aureus, VRSA) it was 0.25 µg/mL (≈ 0.139 µM); in the assay on S. aureus USA300 (Staphylococcus aureus, MRSA / USA300), 0.0625 µg/mL (≈ 0.0349 µM); in assay [7] (Staphylococcus aureus, VRSA), 0.25 µg/mL (≈ 0.139 µM). Moreover, the MIC was 0.25 µg/mL (≈ 0.139 µM) in [7] (strain BR-VRSA); 0.25 µg/mL (≈ 0.139 µM) with S. aureus ATCC29213 (Staphylococcus aureus, ATCC 29213 / MSSA); 4 µg/mL (≈ 2.23 µM) in assay [8] (Staphylococcus aureus, VISA); 0.25 µg/mL (≈ 0.139 µM) in [9] (Staphylococcus aureus, MRSA); 1 µg/mL (≈ 0.558 µM) in assay [10] (Staphylococcus aureus, VISA).

(Values after patent US20230174584A1, “Antibiotic Compounds” (priority 2019, published 2023).)
